Legend:
[1] = test system: tail flick response to heat; assay: Hot plate tail flick screen; format: in vivo, CF1 male mice; conditions: for Mice Tail Flick: 8 mg/kg I.P., hot plate, Table 2; for tail flick assay time / blocking central pain compared with morphine: mice; for tail flick assay time: 8 mg/kg; for blocking central pain compared with morphine: tail flick
acid phosphatase = assay: Acid phosphatase activity, mouse macrophages; format: cell-based, mouse (J774 macrophages); conditions: Table 3; read-out: IC50 Acid Phosphatase, Mouse Macrophage
cathepsin = assay: Cathepsin activity, mouse macrophages; format: cell-based, mouse (J774 macrophages); conditions: Table 3; read-out: IC50 Cathepsin, Mouse Macrophage
trypsin = assay: Trypsin proteolytic activity, mouse macrophages; format: cell-based, mouse (J774 macrophages); conditions: Table 5; read-out: IC50 Trypsin, Mouse Macrophage
elastase = assay: Elastase activity, mouse macrophages; format: cell-based, mouse (J774 macrophages); conditions: Table 5; read-out: IC50 Elastase, Mouse Macrophage
[2] = target: prostaglandin cyclooxygenase; assay: Prostaglandin cyclooxygenase activity, macrophages; format: cell-based, mouse (J774 macrophages); conditions: Table 7
[3] = test system: carrageenan-induced inflammation of paw; assay: Carrageenan-induced paw edema, rats; format: in vivo, Sprague Dawley male rats; conditions: for reduction in induced edema in rats: 8 mg/kg x 2; for Rat Inflammatory: 8 mg/kg x 2, I.P., Table 2;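 for Rat Inflammatory: paw weight increase as percent of control rats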
[4] = test system: acetic acid induced stretch reflex; assay: Local analgesic screen (acetic acid writhing); format: in vivo, CF1 mice; conditions: for Mice Writhing Reflex: 8 mg/kg I.P., Table 2; for reduction of the reflex action: mice, acetic acid induced local pain, 8 mg/kg
[5] = test system: adjuvant (M. butyricum) arthritis; assay: Chronic adjuvant arthritic screen; format: in vivo; conditions: rats; for Rat Chronic Arthritis: 8 mg/kg/day I.P., Day 3 to Day 21, Table 2
[6] = test system: carrageenan-induced pleural fluid; assay: Anti-pleurisy screen; format: in vivo, Sprague Dawley male rats; conditions: for pleurisy edema in rats: 8 mg/kg; for Rat Pleurisy: rats, 8 mg/kg I.P., 1 h before and 3 h after carrageenan, Table 2;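 for Rat Pleurisy: Pleural fluid volume as percent of control rats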
[7] = test system: carrageenan-induced inflammation of hind foot; assay: Carrageenan-induced foot edema, mice; format: in vivo, CF1 male mice; conditions: for anti-inflammatory activity in mouse edema screen / reduction of induced edema: mice; for anti-inflammatory activity in mouse edema screen: 8 mg/kg x 2; for reduction of induced edema: 8 mg/kg x 2, I.P., carrageenan; for inhibition of induced inflammation: standards at their therapeutic dose (indomethacin 8 mg/kg x 2, pentoxifylline and phenylbutazone 50 mg/kg x 2)
aryl sulphatase = assay: Aryl sulfatase activity, mouse macrophages; format: cell-based, mouse (J774 macrophages); conditions: Table 3; read-out: IC50 Aryl Sulfatase, Mouse Macrophage

## C[NH+](C)[BH2-]C(=O)O [Compound 3]
[1]
  Mice Tail Flick: 156 % of control
  tail flick assay time: increased
Acid phosphatase
  IC50: 4.75 µM
cathepsin
  IC50: 6.39 µM
trypsin
  IC50: 3.1 µM
elastase
  IC50: 2.67 µM
[2]
  IC50: 2.91 µM

## C[N+](C)(C)[BH2-]C(=O)O [Compound 4]
[3]
  reduction in induced edema in rats: at least 40%
  Rat Inflammatory: 55 % of control
[4]
  Mice Writhing Reflex: 2 % of control
  reduction of the reflex action: 80%

## CC[NH2+][BH2-]C(=O)O [Compound 5]
[3]
  reduction in induced edema in rats: at least 40%
  Rat Inflammatory: 59 % of control
[4]
  Mice Writhing Reflex: 1 % of control
  reduction of the reflex action: 80%
[1]
  Mice Tail Flick: 196 % of control
  tail flick assay time: increased

## CCC[NH+]([BH2-]C(=O)O)CCC [Compound 6]
[3]
  reduction in induced edema in rats: at least 40%
  Rat Inflammatory: 55 % of control
[4]
  Mice Writhing Reflex: 19 % of control

## C[N+](C)([BH2-]C(=O)O)CC[N+](C)(C)[BH2-]C(=O)O [Compound 7]
[4]
  Mice Writhing Reflex: 55 % of control
  reduction of the reflex action: at least 45%
[5]; 8 mg/kg/day
  reduction of pannus: greater than 75%
[5]
  Rat Chronic Arthritis: 24 % of control
Acid phosphatase
  IC50: 3.32 µM
cathepsin
  IC50: 8.37 µM
trypsin
  IC50: 2.33 µM
elastase
  IC50: 2.76 µM
[2]
  IC50: 1.85 µM

## CCCCCCCCCCCCCCCCCC[N+](C)(C)[BH2-]C(=O)O [Compound 9]
[3]
  Rat Inflammatory: 72 % of control
[4]
  Mice Writhing Reflex: 14 % of control
  reduction of the reflex action: 80%
[1]
  Mice Tail Flick: 231 % of control
  tail flick assay time: increased
  blocking central pain compared with morphine: as effective as morphine
[6]
  pleurisy edema in rats: reduced significantly
  Rat Pleurisy: 37 % of control
Acid phosphatase
  IC50: 5.34 µM
cathepsin
  IC50: 5.09 µM
trypsin
  IC50: 2.07 µM
elastase
  IC50: 6.29 µM
[2]
  IC50: 2.51 µM

## O=C(O)[BH2-][n+]1ccccc1 [Compound 11]
[3]
  Rat Inflammatory: 77 % of control

## COC(=O)[BH2-][N+](C)(C)C [Compound 16]
[7]
  anti-inflammatory activity in mouse edema screen: less active
[3]
  Rat Inflammatory: 71 % of control
[4]
  Mice Writhing Reflex: 2 % of control
  reduction of the reflex action: 80%
[1]
  Mice Tail Flick: 180 % of control
  tail flick assay time: increased
[6]
  pleurisy edema in rats: reduced significantly
  Rat Pleurisy: 45 % of control
Acid phosphatase
  IC50: 3.55 µM
cathepsin
  IC50: 8.28 µM
Aryl sulphatase
  IC50: 17.6 µM
trypsin
  IC50: 3.23 µM
elastase
  IC50: 8.76 µM
[2]
  IC50: 2.41 µM

## CCCCCCCCCCCCCCCC[N+](C)(C)[BH2-]C(=O)OCC [Compound 19]
[7]
  anti-inflammatory activity in mouse edema screen: less active

## CCNC(=O)[BH2-][NH2+]C [Compound 23]
[3]
  reduction in induced edema in rats: at least 40%
  Rat Inflammatory: 41 % of control
[4]
  Mice Writhing Reflex: 27 % of control
  reduction of the reflex action: at least 45%
[1]
  Mice Tail Flick: 81 % of control
Acid phosphatase
  IC50: 1.12 µM
cathepsin
  IC50: 3.95 µM
Aryl sulphatase
  IC50: 9.27 µM
trypsin
  IC50: 2.03 µM
elastase
  IC50: 3.29 µM
[2]
  IC50: 5.19 µM

## CCNC(=O)[BH2-][N+](C)(C)C [Compound 25]
[4]
  Mice Writhing Reflex: 89 % of control

## CCCCNC(=O)[BH2-][N+](C)(C)C [Compound 27]
[4]
  reduction of the reflex action: at least 45%

## CCNC(=O)[BH2-][N+](C)(C)CC[N+](C)(C)[BH2-]C(=O)NCC [Compound 30]
[4]
  Mice Writhing Reflex: 34 % of control

## CCCCCCCCCCCCCCCCCC[N+](C)(C)[BH2-]C#N [Compound 36]
[7]
  anti-inflammatory activity in mouse edema screen: good activity
[4]
  Mice Writhing Reflex: 61 % of control
  reduction of the reflex action: at least 45%
Acid phosphatase
  IC50: 2.68 µM
cathepsin
  IC50: 3.69 µM
trypsin
  IC50: 4.34 µM
elastase
  IC50: 10.3 µM
[2]
  IC50: 2.23 µM

## N#C[BH2-][P+](c1ccccc1)(c1ccccc1)c1ccccc1 [Compound 48]
[3]
  Rat Inflammatory: 78 % of control
[4]
  Mice Writhing Reflex: 50 % of control
  reduction of the reflex action: at least 45%
[1]
  Mice Tail Flick: 134 % of control

## CCNC(=O)[BH2-][P+]([O-])(OCC)OCC.[Na+] [Compound 54]
[7]
  reduction of induced edema: at least 40%

## CCCC[N+](CCCC)(CCCC)CCCC.CCNC(=O)[BH2-][P+]([O-])(OCC)OCC [Compound 57]
Acid phosphatase
  IC50: 4.43 µM
cathepsin
  IC50: 6.49 µM
trypsin
  IC50: 3.76 µM
elastase
  IC50: 9.01 µM
[2]
  IC50: 3.09 µM

## CC[N+]([BH2-]C#N)(CC)CP(=O)(OC)OC [Compound 62]
[7]
  reduction of induced edema: at least 40%

## CC[N+]([BH2-]C#N)(CC)CP(=O)(OC(C)C)OC(C)C [Compound 64]
[7]
  reduction of induced edema: at least 40%

## CCOP(=O)(C[N+](C)(C)[BH2-]C#N)OCC [Compound 66]
[7]
  reduction of induced edema: at least 40%

## CC(C)OP(=O)(C[NH+](C)[BH2-]C#N)OC(C)C (stereo not drawn) [Compound 67]
[7]
  reduction of induced edema: at least 40%

## CCOC(=O)[BH2-][N+](C)(C)CP(=O)(OCC)OCC [Compound 68]
[7]
  reduction of induced edema: at least 40%

## CCNC(=O)[BH2-][NH+](C)CP(=O)(OCC)OCC (stereo not drawn) [Compound 69]
[7]
  reduction of induced edema: at least 40%

## CC(C)OP(=O)(C[NH+](C)[BH2-]C(=O)O)OC(C)C (stereo not drawn) [Compound 71]
[7]
  reduction of induced edema: at least 40%

## CCNC(=O)[BH2-][NH+](C)CP(=O)(OC(C)C)OC(C)C (stereo not drawn) [Compound 73]
[7]
  reduction of induced edema: at least 40%

## C[NH2+][BH2-]C(=O)NO.[H+].c1ccc([B-](c2ccccc2)(c2ccccc2)c2ccccc2)cc1 [Compound 75]
[7]
  reduction of induced edema: at least 40%
[4]
  Mice Writhing Reflex: 34 % of control
  reduction of the reflex action: at least 45%
[1]
  Mice Tail Flick: 279 % of control
  tail flick assay time: increased
  blocking central pain compared with morphine: as effective as morphine
Acid phosphatase
  IC50: 6.61 µM
cathepsin
  IC50: 4.58 µM
Aryl sulphatase
  IC50: 1.5 µM
trypsin
  IC50: 2.51 µM
elastase
  IC50: 7.59 µM
[2]
  IC50: 6.61 µM

## C[N+](C)(C)[BH2-]C(=O)NO.[H+].c1ccc([B-](c2ccccc2)(c2ccccc2)c2ccccc2)cc1 [Compound 76]
[7]
  reduction of induced edema: at least 40%
[3]
  Rat Inflammatory: 60 % of control
[4]
  Mice Writhing Reflex: 45 % of control
  reduction of the reflex action: at least 45%
[1]
  Mice Tail Flick: 258 % of control
  tail flick assay time: increased
  blocking central pain compared with morphine: as effective as morphine
[6]
  pleurisy edema in rats: reduced significantly
  Rat Pleurisy: 50 % of control
Acid phosphatase
  IC50: 3.96 µM
cathepsin
  IC50: 1.69 µM
Aryl sulphatase
  IC50: 1.37 µM
trypsin
  IC50: 2.06 µM
elastase
  IC50: 4.83 µM
[2]
  IC50: 1.61 µM

## [BH3-][NH+]1CCOCC1 [Compound 78]
[7]
  reduction of induced edema: 45%
[3]
  Rat Inflammatory: 83 % of control
[4]
  Mice Writhing Reflex: 15 % of control
  reduction of the reflex action: 80%
[5]; 8 mg/kg/day
  activity in chronic arthritis screen: significantly active
[5]
  Rat Chronic Arthritis: 33 % of control
Acid phosphatase
  IC50: 3.18 µM
cathepsin
  IC50: 0.76 µM
trypsin
  IC50: 2.39 µM
elastase
  IC50: 5.94 µM
[2]
  IC50: 1.47 µM

## C[N+]1([BH2-]C(=O)O)CCOCC1 [Compound 84]
[7]
  reduction of induced edema: at least 30%

## COC(=O)[BH2-][NH+]1CCC(c2ccccc2)CC1 (stereo not drawn) [Compound 87]
[7]
  reduction of induced edema: at least 30%
[4]
  Mice Writhing Reflex: 89 % of control
Acid phosphatase
  IC50: 2.68 µM
cathepsin
  IC50: 3.99 µM
trypsin
  IC50: 2.85 µM
elastase
  IC50: 6.98 µM

## Cc1[nH]cc[n+]1[BH2-]C#N [Compound 91]
[7]
  reduction of induced edema: at least 30%

## COc1ccc2c(c1)c(CC(=O)O)c(C)n2C(=O)c1ccc(Cl)cc1 [Indomethacin, indomethacin, reference compound]
[7]
  inhibition of induced inflammation: 26%
[3]
  Rat Inflammatory: 78 % of control
[4]
  Mice Writhing Reflex: 43 % of control
[6]
  Rat Pleurisy: 12 % of control
[5]
  Rat Chronic Arthritis: 55 % of control

## CN1CC[C@]23c4c5ccc(O)c4O[C@H]2[C@@H](O)C=C[C@H]3[C@H]1C5 [Morphine, morphine, reference compound]
[1]
  Mice Tail Flick: 213 % of control

## CCCCC1C(=O)N(c2ccccc2)N(c2ccccc2)C1=O [Phenylbutazone, phenylbutazone, reference compound]
[7]
  inhibition of induced inflammation: 47%
[3]
  Rat Inflammatory: 47 % of control

## CC(=O)CCCCn1c(=O)c2c(ncn2C)n(C)c1=O [pentoxifylline, reference compound]
[7]
  inhibition of induced inflammation: 30%

From article PMC2364952, “The Anti-Inflammatory Activity of Boron Derivatives in Rodents” (Metal-Based Drugs, 1995)
